Experimental data taken from patent US10953012B2, “Heterocyclic compounds for the inhibition of pask” (BioEnergenix LLC, priority 2011, dated 2021).

Assays:
hPASK (full length) = hPASK (full length) (Homo sapiens (Human), UniProt Q96RG2); assay: PAS Kinase Luminescence Assay (Kinase-Glo), full length; assay type: biochemical
Method: (§1) PAS Kinase Luminescence Assay
(§2) One assay for purified hPASK activity utilizes the Kinase-Glo Luminescent Kinase Assay (Promega), which quantifies the amount of ATP remaining in solution following kinase reaction. The assay is carried out in a 96-well plate format and is performed by adding a volume of Kinase-Glo Reagent (Promega, catalog #V3771) equal to the volume of solution in the well of a completed kinase reaction. Kinase-Glo reagent contains Luciferase and its substrate. After addition to a kinase reaction it allows to measure luminescence. The amount of ATP left in solution at the time of Kinase-Glo Plus addition is directly proportional to the luminescence that is measured in each well, and inversely correlated with kinase activity.
(§3) Purified hPASK from insect cells (0.02 μg) is added to a 50 μL reaction mix containing 40 mM HEPES (pH 7.0), 100 mM KCl, 5 mM MgCl2, 1 mM DTT and 1 μg of MBP protein. Inhibitory compounds are then added and the mixture is incubated for 10 min at 25° C. before adding 5 μL of ATP (at desired concentration). The reaction is allowed to proceed at 25° C. for 1 hour before adding 50 μL of Kinase-Glo reagent. The luminescence is measured as soon as 10 minutes after Kinase-Glo reagent is added.
(§4) Results are shown below in Table 1, where NT means not tested.

hPASK (kinase domain) = hPASK (kinase domain) (Homo sapiens (Human), UniProt Q96RG2); assay: PAS Kinase Luminescence Assay (Kinase-Glo), kinase domain; assay type: biochemical
Method: as §1, §2, §3, §4

Sequence of hPASK (full length) (Q96RG2 whole entry): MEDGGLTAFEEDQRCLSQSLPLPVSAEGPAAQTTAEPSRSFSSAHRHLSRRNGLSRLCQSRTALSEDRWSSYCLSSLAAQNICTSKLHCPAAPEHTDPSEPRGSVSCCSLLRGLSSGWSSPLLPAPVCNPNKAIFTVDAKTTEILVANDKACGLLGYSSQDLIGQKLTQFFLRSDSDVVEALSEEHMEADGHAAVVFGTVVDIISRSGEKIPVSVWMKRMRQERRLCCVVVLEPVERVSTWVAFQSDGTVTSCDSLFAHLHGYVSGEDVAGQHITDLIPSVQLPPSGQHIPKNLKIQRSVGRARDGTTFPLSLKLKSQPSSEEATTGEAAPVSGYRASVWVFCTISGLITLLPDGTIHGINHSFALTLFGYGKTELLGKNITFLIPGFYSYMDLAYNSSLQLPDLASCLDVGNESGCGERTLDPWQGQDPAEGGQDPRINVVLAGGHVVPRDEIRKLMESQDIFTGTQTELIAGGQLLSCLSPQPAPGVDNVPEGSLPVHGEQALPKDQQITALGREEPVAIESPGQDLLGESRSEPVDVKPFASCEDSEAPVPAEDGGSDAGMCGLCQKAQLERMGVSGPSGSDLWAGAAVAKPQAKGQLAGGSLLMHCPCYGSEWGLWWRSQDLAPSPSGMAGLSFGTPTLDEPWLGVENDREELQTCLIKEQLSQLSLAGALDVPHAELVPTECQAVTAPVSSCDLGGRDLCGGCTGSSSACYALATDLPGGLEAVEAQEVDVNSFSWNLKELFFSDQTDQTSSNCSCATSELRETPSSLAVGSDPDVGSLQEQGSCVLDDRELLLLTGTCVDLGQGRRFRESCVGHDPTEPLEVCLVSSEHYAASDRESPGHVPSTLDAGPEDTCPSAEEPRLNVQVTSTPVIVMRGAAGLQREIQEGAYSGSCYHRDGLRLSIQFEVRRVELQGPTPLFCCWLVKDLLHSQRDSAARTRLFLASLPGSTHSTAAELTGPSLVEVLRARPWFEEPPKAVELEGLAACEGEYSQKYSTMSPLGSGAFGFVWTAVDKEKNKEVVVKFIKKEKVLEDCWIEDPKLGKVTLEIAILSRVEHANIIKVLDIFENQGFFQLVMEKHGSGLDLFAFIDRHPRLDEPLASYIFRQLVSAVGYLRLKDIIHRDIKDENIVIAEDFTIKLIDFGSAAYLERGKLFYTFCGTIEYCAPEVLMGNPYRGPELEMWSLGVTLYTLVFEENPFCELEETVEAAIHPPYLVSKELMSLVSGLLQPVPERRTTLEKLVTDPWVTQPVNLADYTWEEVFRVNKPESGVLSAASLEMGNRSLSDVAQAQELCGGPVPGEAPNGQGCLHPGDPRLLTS
Sequence of hPASK (kinase domain) (Q96RG2 999-1251): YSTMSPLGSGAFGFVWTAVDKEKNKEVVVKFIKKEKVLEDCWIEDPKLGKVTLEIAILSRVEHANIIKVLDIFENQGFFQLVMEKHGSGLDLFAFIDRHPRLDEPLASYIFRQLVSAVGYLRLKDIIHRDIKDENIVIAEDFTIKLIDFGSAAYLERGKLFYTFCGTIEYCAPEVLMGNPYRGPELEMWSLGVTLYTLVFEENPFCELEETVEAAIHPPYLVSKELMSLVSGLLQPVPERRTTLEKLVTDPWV

IC50 (hPASK (full length)) [µM]	IC50 (hPASK (kinase domain)) [µM]	SMILES
≥ 10	≥ 10	COCc1cc(=O)n2nc(Cc3ccccc3)c(-c3ccc(Cl)cc3)c2[nH]1 [Example 24, 2-Benzyl-3-(4-chloro-phenyl)-5-methoxymethyl-4H-pyrazolo[1,5-a]pyrimidin-7-one]
≥ 10	≥ 10	O=c1c2c([nH]c3c(-c4ccc(Cl)cc4)c(Cc4ccccc4)nn13)CCC2 [Example 26, 2-Benzyl-3-(4-chlorophenyl)-6,7-dihydro-4H-cyclopenta[d]pyrazolo[1,5-a]pyrimidin-8(5H)-one]
≥ 10	≥ 10	Cc1nn2c(=O)c3c([nH]c2c1-c1ccc(Cl)cc1)CCC3 [Example 27, 3-(4-Chlorophenyl)-2-methyl-6,7-dihydro-4H-cyclopenta[d]pyrazolo[1,5-a]pyrimidin-8(5H)-one]
≥ 10	≥ 10	Cc1cc(=O)n2nc(C)c(-c3ccc(Cl)cc3)c2[nH]1 [Example 28, 3-(4-Chloro-phenyl)-2,5-dimethyl-4H-pyrazolo[1,5-a]pyrimidin-7-one]
≥ 10	≥ 10	COCc1cc(=O)n2nc(-c3ccc(Cl)cc3)cc2[nH]1 [Example 29, 2-(4-Chloro-phenyl)-5-methoxymethyl-4H-pyrazolo[1,5-a]pyrimidin-7-one]
≥ 10	≥ 10	COc1ccc(-c2nn3c(=O)cc(C(C)C)[nH]c3c2-c2ccccc2)cc1 [Example 30, 5-Isopropyl-2-(4-methoxy-phenyl)-3-phenyl-4H-pyrazolo[1,5-a]pyrimidin-7-one]
≥ 10	≥ 10	COc1ccc(Cc2nn3c(=O)cc(C)[nH]c3c2-c2ccccc2)cc1 [Example 31, 2-(4-Methoxy-benzyl)-5-methyl-3-phenyl-4H-pyrazolo[1,5-a]pyrimidin-7-one]
≥ 10	≥ 10	CCc1c(C)[nH]c2c(-c3ccccc3)c(Cc3ccc(OC)cc3)nn2c1=O [Example 32, 6-Ethyl-2-(4-methoxy-benzyl)-5-methyl-3-phenyl-4H-pyrazolo[1,5-a]pyrimidin-7-one]
≥ 10	≥ 10	CCc1c(C)[nH]c2c(-c3ccc(Cl)cc3)c(C)nn2c1=O [Example 33, 3-(4-Chloro-phenyl)-6-ethyl-2,5-dimethyl-4H-pyrazolo[1,5-a]pyrimidin-7-one]
≥ 10	≥ 10	O=c1cc(Cc2ccccc2)[nH]c2c(-c3ccccc3)c(-c3ccccc3)nn12 [Example 34, 5-Benzyl-2,3-diphenyl-4H-pyrazolo[1,5-a]pyrimidin-7-one]
≥ 10	≤ 10	O=c1c2c([nH]c3c(-c4ccccc4)c(-c4ccccc4)nn13)CCC2 [Example 35, 2,3-Diphenyl-6,7-dihydro-4H-cyclopenta[d]pyrazolo[1,5-a]pyrimidin-8(5H)-one]
≥ 10	≥ 10	CCOC(=O)Cc1cc(=O)n2nc(-c3ccccc3)c(-c3ccccc3)c2[nH]1 [Example 36, (7-oxo-2,3-diphenyl-4,7-dihydro-pyrazolo[1,5-a]pyrimidin-5-yl)-acetic acid ethyl ester]
≥ 10	≥ 10	Cc1ccc(-c2cc(=O)n3nc(C)c(-c4ccccc4)c3[nH]2)cc1 [Example 37, 2-Methyl-3-phenyl-5-p-tolyl-4H-pyrazolo[1,5-a]pyrimidin-7-one]
≤ 10	≤ 10	COc1ccc(-c2cc(=O)n3nc(C)c(-c4ccc(F)cc4)c3[nH]2)cc1 [Example 38, 3-(4-Fluoro-phenyl)-5-(4-methoxy-phenyl)-2-methyl-4H-pyrazolo[1,5-a]pyrimidin-7-one]
≤ 10	≥ 10	Cc1cc(=O)n2nc(-c3cccc(Br)c3)cc2[nH]1 [Example 39, 2-(3-Bromo-phenyl)-5-methyl-4H-pyrazolo[1,5-a]pyrimidin-7-one]
